# In PubChem BioAssay (NCI):
#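 Results reflect a 48-hour exposure of cells in 96-well plates to compound at five concentrations. TGI: total growth inhibition.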
# Key:
# Assay in all cases: growth of human tumour cells (NCI), 48 h
# [1] = system: A549 NSCLC
# [2] = system: ACHN renal
# [3] = system: BT-549 breast
# [4] = system: CAKI-1 renal
# [5] = system: CCRF-CEM leukemia
# [6] = system: COLO 205 colon
# [7] = system: DU-145 prostate
# [8] = system: EKVX NSCLC
# [9] = system: HCT-116 colon
# [10] = system: HCT-15 colon
# [11] = system: HL-60(TB) leukemia
# [12] = system: HOP-62 NSCLC
# [13] = system: HS 578T breast
# [14] = system: HT29 colon
# [15] = system: IGROV1 ovarian
# [16] = system: K-562 leukemia
# [17] = system: KM12 colon
# [18] = system: LOX IMVI melanoma
# [19] = system: M14 melanoma
# [20] = system: MALME-3M melanoma
# [21] = system: MCF7 breast
# [22] = system: MDA-MB-231 breast
# [23] = system: MDA-MB-435
# [24] = system: MDA-N
# [25] = system: NCI-H23 lung
# [26] = system: NCI-H460 lung
# [27] = system: NCI/ADR-RES ovarian
# [28] = system: OVCAR-3 ovarian
# [29] = system: OVCAR-4 ovarian
# [30] = system: OVCAR-5 ovarian
# [31] = system: OVCAR-8 ovarian
# [32] = system: PC-3 prostate
# [33] = system: RPMI-8226 leukemia
# [34] = system: RXF 393 renal
# [35] = system: SF-268 CNS
# [36] = system: SF-295 CNS
# [37] = system: SF-539 CNS
# [38] = system: SK-MEL-28 melanoma
# [39] = system: SK-MEL-5 melanoma
# [40] = system: SK-OV-3 ovarian
# [41] = system: SN12C renal
# [42] = system: SNB-19 CNS
# [43] = system: SNB-75 CNS
# [44] = system: SR leukemia
# [45] = system: SW-620 colon
# [46] = system: T-47D breast
# [47] = system: TK-10 renal
# [48] = system: U251 CNS
# [49] = system: UACC-257 melanoma
# [50] = system: UACC-62 melanoma
# [51] = system: UO-31 renal
# [52] = system: 786-0 renal
# [53] = system: HCC-2998 colon
# [54] = system: HOP-92 NSCLC
# [55] = system: MOLT-4 leukemia
# [56] = system: NCI-H226 lung
# [57] = system: NCI-H522 lung
# [58] = system: SK-MEL-2 melanoma
structure (smiles),measurement,setting,value
COc1ccc(-c2c3c(nc4nc(SCC(=O)c5ccc(Br)cc5)nc(N)c24)CCCC3)cc1OC,TGI,[1],> 100 µM
same,TGI,[2],> 100 µM
same,TGI,[3],> 100 µM
same,TGI,[4],> 100 µM
same,TGI,[5],> 100 µM
same,TGI,[6],> 100 µM
same,TGI,[7],> 100 µM
same,TGI,[8],> 100 µM
same,TGI,[9],> 100 µM
same,TGI,[10],> 100 µM
same,TGI,[11],> 100 µM
same,TGI,[12],> 100 µM
same,TGI,[13],28.6 µM
same,TGI,[14],> 100 µM
same,TGI,[15],> 100 µM
same,TGI,[16],> 100 µM
same,TGI,[17],> 100 µM
same,TGI,[18],> 100 µM
same,TGI,[19],> 100 µM
same,TGI,[20],> 100 µM
same,TGI,[21],> 100 µM
same,TGI,[22],> 100 µM
same,TGI,[23],> 100 µM
same,TGI,[24],> 100 µM
same,TGI,[25],> 100 µM
same,TGI,[26],> 100 µM
same,TGI,[27],> 100 µM
same,TGI,[28],> 100 µM
same,TGI,[29],> 100 µM
same,TGI,[30],> 100 µM
same,TGI,[31],> 100 µM
same,TGI,[32],> 100 µM
same,TGI,[33],> 100 µM
same,TGI,[34],59.2 µM
same,TGI,[35],> 100 µM
same,TGI,[36],> 100 µM
same,TGI,[37],> 100 µM
same,TGI,[38],> 100 µM
same,TGI,[39],21.7 µM
same,TGI,[40],> 100 µM
same,TGI,[41],> 100 µM
same,TGI,[42],> 100 µM
same,TGI,[43],28.1 µM
same,TGI,[44],> 100 µM
same,TGI,[45],> 100 µM
same,TGI,[46],> 100 µM
same,TGI,[47],> 100 µM
same,TGI,[48],> 100 µM
same,TGI,[49],> 100 µM
same,TGI,[50],> 100 µM
same,TGI,[51],> 100 µM
C=C(C)COc1cc(NC(=S)OC(C)C)ccc1Cl,TGI,[52],30.5 µM
same,TGI,[1],25.8 µM
same,TGI,[2],31.1 µM
same,TGI,[3],24.3 µM
same,TGI,[4],28.7 µM
same,TGI,[5],39.2 µM
same,TGI,[6],31.6 µM
same,TGI,[7],31.1 µM
same,TGI,[8],24.8 µM
same,TGI,[53],29.5 µM
same,TGI,[9],28.4 µM
same,TGI,[10],30.6 µM
same,TGI,[11],35.9 µM
same,TGI,[54],26.7 µM
same,TGI,[13],49.9 µM
same,TGI,[14],28.4 µM
same,TGI,[15],31 µM
same,TGI,[16],38.7 µM
same,TGI,[17],65.7 µM
same,TGI,[18],30.4 µM
same,TGI,[19],31.7 µM
same,TGI,[21],29.3 µM
same,TGI,[22],29.5 µM
same,TGI,[23],28.6 µM
same,TGI,[24],31.5 µM
same,TGI,[55],34.3 µM
same,TGI,[56],32.7 µM
same,TGI,[25],31.3 µM
same,TGI,[26],30.8 µM
same,TGI,[57],29.1 µM
same,TGI,[27],30.1 µM
same,TGI,[28],29.6 µM
same,TGI,[29],28.3 µM
same,TGI,[30],29.4 µM
same,TGI,[31],30.7 µM
same,TGI,[32],28.6 µM
same,TGI,[33],54.1 µM
same,TGI,[35],40.6 µM
same,TGI,[36],29.3 µM
same,TGI,[37],30 µM
same,TGI,[58],27.2 µM
same,TGI,[38],31.8 µM
same,TGI,[39],38.4 µM
same,TGI,[40],38.1 µM
same,TGI,[41],30.6 µM
same,TGI,[42],33.4 µM
same,TGI,[43],29.8 µM
same,TGI,[45],27.6 µM
same,TGI,[46],26.8 µM
same,TGI,[47],29.3 µM
same,TGI,[48],30.8 µM
same,TGI,[49],31.8 µM
same,TGI,[50],32.7 µM
same,TGI,[51],26.9 µM
